A short description of one series: physchem. To be noted: 1-octanol/phosphate buffered saline, pH 7.4.
A short description of another series: cells. The conditions noted are these: Homo sapiens, Th17, 96 h.
The nature of another series: in vitro. The conditions noted are these: human, liver microsomes. (Liver microsomes are a subcellular fraction often used to study metabolism.)
Series [1] in a line: Apparent permeability across apical to basolateral side in human Caco-2 cells. It is filed as ADME, cell-based. For orientation: Caco-2 monolayers are a common model of the intestinal barrier.
A short description of series [2]: Intrinsic permeability of compound from apical to basolateral side in human Caco2 cells. The series is classed as ADME, cell-based. The conditions noted are these: Caco-2.
The target in series [3] is Voltage-gated inwardly rectifying potassium channel KCNH2 (Homo sapiens, UniProt Q12809).
Voltage-gated inwardly rectifying potassium channel KCNH2, sequence (Q12809 whole entry): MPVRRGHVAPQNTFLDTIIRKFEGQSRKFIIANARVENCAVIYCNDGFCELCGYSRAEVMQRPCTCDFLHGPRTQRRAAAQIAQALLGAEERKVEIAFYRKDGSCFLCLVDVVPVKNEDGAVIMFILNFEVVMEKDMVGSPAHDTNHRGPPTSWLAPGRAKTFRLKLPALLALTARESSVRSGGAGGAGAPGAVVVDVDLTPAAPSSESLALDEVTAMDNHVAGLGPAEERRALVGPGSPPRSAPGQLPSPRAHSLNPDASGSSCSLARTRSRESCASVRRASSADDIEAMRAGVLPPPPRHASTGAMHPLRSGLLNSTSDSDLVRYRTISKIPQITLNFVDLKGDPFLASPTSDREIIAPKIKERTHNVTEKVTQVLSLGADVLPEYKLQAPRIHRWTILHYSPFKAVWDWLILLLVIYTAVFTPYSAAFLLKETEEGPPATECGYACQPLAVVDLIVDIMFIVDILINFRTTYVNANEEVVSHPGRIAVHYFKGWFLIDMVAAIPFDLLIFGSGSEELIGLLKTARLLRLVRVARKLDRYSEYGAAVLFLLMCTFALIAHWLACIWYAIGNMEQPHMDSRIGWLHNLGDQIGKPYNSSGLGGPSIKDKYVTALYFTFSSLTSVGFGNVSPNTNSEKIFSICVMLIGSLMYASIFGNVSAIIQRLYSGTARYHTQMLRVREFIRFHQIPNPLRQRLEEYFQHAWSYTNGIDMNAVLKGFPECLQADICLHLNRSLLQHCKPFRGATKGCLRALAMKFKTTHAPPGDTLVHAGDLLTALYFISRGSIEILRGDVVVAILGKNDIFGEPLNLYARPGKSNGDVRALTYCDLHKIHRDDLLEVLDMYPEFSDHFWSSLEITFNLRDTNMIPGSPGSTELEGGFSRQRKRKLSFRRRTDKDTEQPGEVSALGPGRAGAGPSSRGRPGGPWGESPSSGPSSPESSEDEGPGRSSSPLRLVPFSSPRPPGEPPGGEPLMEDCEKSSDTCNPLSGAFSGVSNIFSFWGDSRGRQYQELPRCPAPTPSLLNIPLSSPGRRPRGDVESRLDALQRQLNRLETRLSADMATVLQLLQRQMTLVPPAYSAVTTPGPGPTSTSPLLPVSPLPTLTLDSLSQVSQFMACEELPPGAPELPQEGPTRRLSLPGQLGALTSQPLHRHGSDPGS

Consider `CCS(=O)(=O)c1ccc(C(Cc2nnco2)C(=O)Nc2ccc(C(O)(C(F)(F)F)C(F)(F)F)cc2)cc1` (stereo unspecified), for which the logD (as a rule, lipophilicity at a set pH, counting ionised and neutral species) in the series “physchem” came out at 2.9. Moreover, in “cells”, the IC50 (usually the point on the concentration scale where inhibition reaches its midpoint) stood at 0.224 µM. Besides, the microsomal CLint – broadly, a measure of how fast metabolising enzymes remove a compound, apart from limits set by blood flow – in the series “in vitro” is less than 3 µL/min/mg.
Take `CS(=O)(=O)c1ccc2c(c1)CN(C(=O)C1CCO1)C2C(=O)Nc1ccc(C(O)(C(F)(F)F)C(F)(F)F)cc1` (stereo unspecified): the logD in “physchem” amounted to 2.2. In addition, the intrinsic metabolic clearance (microsomal CLint) in the series “in vitro” was less than 3 µL/min/mg.
As for `CCS(=O)(=O)c1ccc(C(NC(C)=O)C(=O)Nc2ccc(C(O)(C(F)(F)F)C(F)(F)F)cc2)nc1` (stereo unspecified), the apical-to-basolateral permeability (Papp A→B) (usually the apparent permeability from the apical to the basolateral side of a cell layer) in series [1] was found to be 0.7 ×10⁻⁶ cm/s. In “physchem”, this compound gave a log distribution coefficient (logD) of 2.5. The compound also showed an IC50 in “cells” of 0.063 µM. Further, the microsomal CLint in the series “in vitro” is less than 3 µL/min/mg. Also, the Pm in series [2] is recorded as 7.7.
On to `CCS(=O)(=O)c1ccc2c(c1)CN(C(=O)CCC#N)C2C(=O)Nc1ccc(C(O)(C(F)(F)F)C(F)(F)F)cc1` (stereo unspecified), for which, in “physchem”, the logD came to 2.5. In “in vitro”, this compound gave a microsomal CLint of less than 3 µL/min/mg.
The like results for `CCS(=O)(=O)c1ccc2c(c1)CN(C=O)C2C(=O)Nc1ccc(C(O)(C(F)(F)F)C(F)(F)F)cc1` (stereo unspecified) were, in that order, 2.9 and less than 3 µL/min/mg.
`CS(=O)(=O)c1ccc2c(c1)CN(C(=O)CCC#N)C2C(=O)Nc1ccc(C(O)(C(F)(F)F)C(F)(F)F)cc1` (stereo unspecified) had a log distribution coefficient (logD) in the series “physchem” of 2.3. Moreover, the microsomal CLint in “in vitro” was less than 3 µL/min/mg.
Consider `CCS(=O)(=O)c1ccc(C(NC(=O)CC2CC2)C(=O)Nc2ccc(C(O)(C(F)(F)F)C(F)(F)F)cc2)nc1` (stereo unspecified), for which the Papp A→B in series [1] worked out at 1.1 ×10⁻⁶ cm/s. Moreover, in the series “physchem”, the logD turned out to be 3.5. The IC50 stood at 0.02 µM in the series “cells” and 34 µM in series [3]. Further, in the series “in vitro”, the microsomal CLint is 22 µL/min/mg. Moreover, the Pm in series [2] is 14.2.
For `CC(=O)N1Cc2cc(S(C)(=O)=O)ccc2[C@H]1C(=O)Nc1ccc(C(O)(C(F)(F)F)C(F)(F)F)cc1`, the log distribution coefficient (logD) in the series “physchem” stood at 2.4. The compound further came in with an intrinsic clearance (microsomal CLint) in the series “in vitro” of less than 3 µL/min/mg.
In the case of `CCS(=O)(=O)c1ccc(C(NC(=O)Cc2ccccc2)C(=O)Nc2ccc(C(O)(C(F)(F)F)C(F)(F)F)cc2)nc1` (stereo unspecified), in series [1], the apical-to-basolateral permeability (Papp A→B) was determined as 0.9 ×10⁻⁶ cm/s. Moreover, in the series “physchem”, the logD stood at 4. This compound showed an intrinsic clearance (microsomal CLint) in “in vitro” of 21 µL/min/mg. Moreover, the Pm in series [2] is listed as 29. In addition, in series [3], inhibition was half-maximal at 16 µM (IC50).
Consider `CCS(=O)(=O)c1ccc(C(CC(=O)NC)C(=O)Nc2ccc(C(O)(C(F)(F)F)C(F)(F)F)cc2)cc1` (stereo unspecified), for which, in series [1], the Papp A→B stood at 0.4 ×10⁻⁶ cm/s. Further, in the series “physchem”, the logD was found to be 3.1. In addition, in “in vitro”, the intrinsic clearance (microsomal CLint) was less than 3 µL/min/mg. This compound also displayed a Pm in series [2] of 8.
As to `CS(=O)(=O)c1ccc2c(c1)CNC2C(=O)Nc1ccc(C(O)(C(F)(F)F)C(F)(F)F)cc1` (stereo unspecified), the logD in “physchem” amounted to 3. In the series “in vitro”, this compound gave a microsomal CLint of less than 3 µL/min/mg.
Compound `CNS(=O)(=O)c1ccc2c(c1)CN(C(C)=O)C2C(=O)Nc1ccc(C(O)(C(F)(F)F)C(F)(F)F)cc1` (stereo unspecified) registered a logD in the series “physchem” of 2.8. The compound further yielded a microsomal CLint in the series “in vitro” of less than 3 µL/min/mg.
In the same order, the values of `COCCS(=O)(=O)c1ccc2c(c1)CN(C(C)=O)C2C(=O)Nc1ccc(C(O)(C(F)(F)F)C(F)(F)F)cc1` (stereo unspecified) are 2.5 and 11 µL/min/mg.
In the case of `CCS(=O)(=O)c1ccc([C@@H](CC(=O)NC)C(=O)Nc2ccc(C(O)(C(F)(F)F)C(F)(F)F)cc2)cc1`, in series [1], the apparent permeability from apical to basolateral (Papp A→B) worked out at 0.3 ×10⁻⁶ cm/s. In the series “physchem”, this compound displayed a pH-dependent lipophilicity (logD) of 3.2. Besides, the microsomal CLint in the series “in vitro” was less than 3 µL/min/mg. Moreover, in series [2], the Pm is on record as 3.2. Moreover, in series [3], the IC50 is more than 40 µM.
`NCCC(=O)N1Cc2cc(S(=O)(=O)CC3CC3)ccc2C1C(=O)Nc1ccc(C(O)(C(F)(F)F)C(F)(F)F)cc1` (stereo unspecified) registered a logD in “physchem” of 1.1. This compound yielded a microsomal CLint in “in vitro” of less than 3 µL/min/mg.
`CCS(=O)(=O)c1ccc(C(NC(=O)OC)C(=O)Nc2ccc(C(O)(C(F)(F)F)C(F)(F)F)cc2)nc1` (stereo unspecified) had a logD in the series “physchem” of 2.9. Moreover, in “in vitro”, the microsomal CLint was less than 3 µL/min/mg. The compound further yielded an IC50 in series [3] of 9.3 µM.
`CCS(=O)(=O)c1ccc(C(NC(=O)Cc2ccccn2)C(=O)Nc2ccc(C(O)(C(F)(F)F)C(F)(F)F)cc2)nc1` (stereo unspecified) displayed a logD in the series “physchem” of 2.8. Moreover, the microsomal CLint in the series “in vitro” was less than 3 µL/min/mg. This compound came in with a half-inhibitory concentration (IC50) in series [3] of 4.1 µM.
`COCC(=O)N1Cc2cc(S(=O)(=O)CC3CC3)ccc2C1C(=O)Nc1ccc(C(O)(C(F)(F)F)C(F)(F)F)cc1` (stereo unspecified): in the series “physchem”, the logD was 3.2. In addition, the microsomal CLint in the series “in vitro” worked out at 19 µL/min/mg.
The like results for `CNC(=O)N1Cc2cc(S(C)(=O)=O)ccc2C1C(=O)Nc1ccc(C(O)(C(F)(F)F)C(F)(F)F)cc1` (stereo unspecified) were, in that order, 2.5 and less than 3 µL/min/mg.
`CCS(=O)(=O)c1ccc(C(NC(=O)Cc2nccs2)C(=O)Nc2ccc(C(O)(C(F)(F)F)C(F)(F)F)cc2)nc1` (stereo unspecified): in series [1], the Papp A→B is 2.5 ×10⁻⁶ cm/s. In “physchem”, this compound yielded a logD of 3.1. In addition, the microsomal CLint in “in vitro” worked out at 16 µL/min/mg. Moreover, in series [2], the Pm is reported as 11. Besides, the IC50 in series [3] turned out to be 5.5 µM.
With `CCS(=O)(=O)c1ccc(C(CC(=O)N(C)C)C(=O)Nc2ccc(C(O)(C(F)(F)F)C(F)(F)F)cc2)cc1` (stereo unspecified), in series [1], the Papp A→B turned out to be 1.4 ×10⁻⁶ cm/s. Also, in the series “physchem”, the logD worked out at 3.1. In addition, the IC50 in the series “cells” is 0.091 µM. Moreover, the microsomal CLint in the series “in vitro” was determined as 5 µL/min/mg. Further, the Pm in series [2] came out at 24.
In the case of `CCS(=O)(=O)c1ccc([C@H](CC(=O)NC)C(=O)Nc2ccc(C(O)(C(F)(F)F)C(F)(F)F)cc2)cc1`, the logD in “physchem” came to 3.1. The compound also displayed a microsomal CLint in “in vitro” of less than 3 µL/min/mg. In series [3], the IC50 is more than 40 µM.
For `CC(=O)N1Cc2cc(S(=O)(=O)NC3CC3)ccc2C1C(=O)Nc1ccc(C(O)(C(F)(F)F)C(F)(F)F)cc1` (stereo unspecified), the pH-dependent lipophilicity (logD) in “physchem” was 3.2. In addition, the intrinsic metabolic clearance (microsomal CLint) in the series “in vitro” turned out to be 11 µL/min/mg.
Turning to `CS(=O)(=O)c1ccc2c(c1)CN(C(=O)CO)C2C(=O)Nc1ccc(C(O)(C(F)(F)F)C(F)(F)F)cc1` (stereo unspecified), the logD in “physchem” came out at 1.9. Further, the microsomal CLint in “in vitro” was less than 3 µL/min/mg.
In the same order, the values of `CC(=O)N1Cc2cc(S(=O)(=O)CCO)ccc2C1C(=O)Nc1ccc(C(O)(C(F)(F)F)C(F)(F)F)cc1` (stereo unspecified) are 2.1 and 3.1 µL/min/mg.
Take `COC(=O)N1Cc2cc(S(C)(=O)=O)ccc2C1C(=O)Nc1ccc(C(O)(C(F)(F)F)C(F)(F)F)cc1` (stereo unspecified): the log distribution coefficient (logD) in “physchem” stood at 2.9. Moreover, the microsomal CLint in the series “in vitro” was less than 3 µL/min/mg.
The like results for `CCS(=O)(=O)c1ccc2c(c1)CN(C(=O)C1CCO1)C2C(=O)Nc1ccc(C(O)(C(F)(F)F)C(F)(F)F)cc1` (stereo unspecified) were, in that order, 2.6 and less than 3 µL/min/mg.
The like results for `CNS(=O)(=O)c1ccc2c(c1)CN(C(=O)C1CCO1)C2C(=O)Nc1ccc(C(O)(C(F)(F)F)C(F)(F)F)cc1` (stereo unspecified) were, in that order, 2.6 and less than 3 µL/min/mg.
Take `CNS(=O)(=O)c1ccc2c(c1)CN(C=O)C2C(=O)Nc1ccc(C(O)(C(F)(F)F)C(F)(F)F)cc1` (stereo unspecified): in the series “physchem”, the logD stood at 2.7. The compound also yielded a microsomal CLint in the series “in vitro” of 6.8 µL/min/mg.
The like results for `CC(=O)N1Cc2cc(S(=O)(=O)CC3CC3)ccc2C1C(=O)Nc1ccc(C(O)(C(F)(F)F)C(F)(F)F)cc1` (stereo unspecified) were, in that order, 3.4 and less than 3 µL/min/mg.
In the same order, the values of `CC(=O)N1Cc2cc(S(=O)(=O)CC3(F)CC3)ccc2C1C(=O)Nc1ccc(C(O)(C(F)(F)F)C(F)(F)F)cc1` (stereo unspecified) are 3.1 and 7.9 µL/min/mg.
In the same order, the values of `CC(=O)N1CCc2cc(S(C)(=O)=O)ccc2C1C(=O)Nc1ccc(C(O)(C(F)(F)F)C(F)(F)F)cc1` (racemic) are 2.9 and less than 3 µL/min/mg.
Turning to `CC(=O)NC(C(=O)Nc1ccc(C(O)(C(F)(F)F)C(F)(F)F)cc1)c1ccc(S(C)(=O)=O)cc1` (racemic), in the series “physchem”, the logD worked out at 2.7. In “in vitro”, this compound displayed a microsomal CLint of less than 3 µL/min/mg.
